Assay results reported in US20250231185A1, “Coronavirus T Cell Epitopes, Megapools and Uses Thereof” (La Jolla Institute for Immunology, priority 2021, published 2025).
Like-named read-outs stand apart in the source and are kept apart here.

Key:
CD8+ T cells [1] = conditions: cited from earlier work
CD8+ T cells [2] = experiment: Meta-analysis of published SARS-CoV-2 CD8 T cell epitope data curated in the IEDB (25 studies); type: cell-based, human; conditions: dominant = recognized by 3 or more donors/different studies
[3] = T cell type (CD4 or CD8) recognizing the SARS-CoV-2 epitope
[4] = SARS-CoV-2-derived CD8 epitopes
[5] = SARS-CoV-2 Ag S, T cell type recognizing the epitope

Substance | Restriction (CD8+ T cells [1]; [3]) | Dominant (CD8+ T cells [2]; [4]) | Restriction (CD8+ T cells [1]; [5]) | Dominant (CD8+ T cells [2]; SARS-CoV-2 Ag S, CD8 epitopes)
1027 (VYRGTTTYKL) [compound 1027] | CD8 | Yes (more dominant epitopes are defined by being recognized by 3 or more donors/different studies) | – | –
1029 (KLNVGDYFV) [compound 1029] | CD8 | Yes (more dominant epitopes are defined by being recognized by 3 or more donors/different studies) | – | –
1033 (SSNVANYQK) [compound 1033] | CD8 | Yes (more dominant epitopes are defined by being recognized by 3 or more donors/different studies) | – | –
1041 (VYIGDPAQL) [compound 1041] | CD8 | Yes (more dominant epitopes are defined by being recognized by 3 or more donors/different studies) | – | –
1042 (IVDTVSALV) [compound 1042] | CD8 | Yes (more dominant epitopes are defined by being recognized by 3 or more donors/different studies) | – | –
1052 (VLWAHGFEL) [compound 1052] | CD8 | Yes (more dominant epitopes are defined by being recognized by 3 or more donors/different studies) | – | –
1053 (TYACWHHSI) [compound 1053] | CD8 | Yes (more dominant epitopes are defined by being recognized by 3 or more donors/different studies) | – | –
1055 (AIMTRCLAV) [compound 1055] | CD8 | Yes (more dominant epitopes are defined by being recognized by 3 or more donors/different studies) | – | –
1056 (IEYPIIGDEL) [compound 1056] | CD8 | Yes (more dominant epitopes are defined by being recognized by 3 or more donors/different studies) | – | –
1057 (ALLADKFPV) [compound 1057] | CD8 | Yes (more dominant epitopes are defined by being recognized by 3 or more donors/different studies) | – | –
1061 (SYATHSDKF) [compound 1061] | CD8 | Yes (more dominant epitopes are defined by being recognized by 3 or more donors/different studies) | – | –
1065 (MMISAGFSL) [compound 1065] | CD8 | Yes (more dominant epitopes are defined by being recognized by 3 or more donors/different studies) | – | –
1067 (KQFDTYNLW) [compound 1067] | CD8 | Yes (more dominant epitopes are defined by being recognized by 3 or more donors/different studies) | – | –
1069 (NLWNTFTRL) [compound 1069] | CD8 | Yes (more dominant epitopes are defined by being recognized by 3 or more donors/different studies) | – | –
1072 (KVDGVDVEL) [compound 1072] | CD8 | Yes (more dominant epitopes are defined by being recognized by 3 or more donors/different studies) | – | –
1082 (LLLDDFVEII) [compound 1082] | CD8 | Yes (more dominant epitopes are defined by being recognized by 3 or more donors/different studies) | – | –
1084 (MLWCKDGHV) [compound 1084] | CD8 | Yes (more dominant epitopes are defined by being recognized by 3 or more donors/different studies) | – | –
1085 (GVAMPNLYK) [compound 1085] | CD8 | Yes (more dominant epitopes are defined by being recognized by 3 or more donors/different studies) | – | –
1087 (KMQRMLLEK) [compound 1087] | CD8 | Yes (more dominant epitopes are defined by being recognized by 3 or more donors/different studies) | – | –
1303 (NYNYLYRLF) [compound 1303] | – | – | CD8 | Yes (more dominant epitopes are defined by being recognized by 3 or more donors/different studies)
1304 (NYNYLYRLFRK) [compound 1304] | – | – | CD8 | Yes (more dominant epitopes are defined by being recognized by 3 or more donors/different studies)
1313 (YFPLQSYGF) [compound 1313] | – | – | CD8 | Yes (more dominant epitopes are defined by being recognized by 3 or more donors/different studies)
1315 (FQPTNGVGY) [compound 1315] | – | – | CD8 | Yes (more dominant epitopes are defined by being recognized by 3 or more donors/different studies)
1319 (QPYRVVVL) [compound 1319] | – | – | CD8 | Yes (more dominant epitopes are defined by being recognized by 3 or more donors/different studies)

Substance | Restriction (CD8+ T cells [1]; [3]) | Dominant (CD8+ T cells [2]; [4]) | Restriction (CD8+ T cells [1]; [5]) | Dominant (CD8+ T cells [2]; SARS-CoV-2 Ag S, CD8 epitopes)
1321 (SFELLHAPATV) [compound 1321] | – | – | CD8 | Yes (more dominant epitopes are defined by being recognized by 3 or more donors/different studies)
1324 (GPKKSTNLV) [compound 1324] | – | – | CD8 | Yes (more dominant epitopes are defined by being recognized by 3 or more donors/different studies)
1342 (IGAEHVNNSY) [compound 1342] | – | – | CD8 | Yes (more dominant epitopes are defined by being recognized by 3 or more donors/different studies)
1345 (IPIGAGICASY) [compound 1345] | – | – | CD8 | Yes (more dominant epitopes are defined by being recognized by 3 or more donors/different studies)
1347 (SPRRARSVA) [compound 1347] | – | – | CD8 | Yes (more dominant epitopes are defined by being recognized by 3 or more donors/different studies)
1350 (SVASQSIIAY) [compound 1350] | – | – | CD8 | Yes (more dominant epitopes are defined by being recognized by 3 or more donors/different studies)
1351 (VASQSIIAY) [compound 1351] | – | – | CD8 | Yes (more dominant epitopes are defined by being recognized by 3 or more donors/different studies)
1352 (SIIAYTMSL) [compound 1352] | – | – | CD8 | Yes (more dominant epitopes are defined by being recognized by 3 or more donors/different studies)
1361 (FTISVTTEIL) [compound 1361] | – | – | CD8 | Yes (more dominant epitopes are defined by being recognized by 3 or more donors/different studies)
1362 (TEILPVSMTK) [compound 1362] | – | – | CD8 | Yes (more dominant epitopes are defined by being recognized by 3 or more donors/different studies)
1365 (STECSNLLLQY) [compound 1365] | – | – | CD8 | Yes (more dominant epitopes are defined by being recognized by 3 or more donors/different studies)
1366 (TECSNLLLQY) [compound 1366] | – | – | CD8 | Yes (more dominant epitopes are defined by being recognized by 3 or more donors/different studies)
1367 (LLQYGSFCT) [compound 1367] | – | – | CD8 | Yes (more dominant epitopes are defined by being recognized by 3 or more donors/different studies)
1379 (LLFNKVTLA) [compound 1379] | – | – | CD8 | Yes (more dominant epitopes are defined by being recognized by 3 or more donors/different studies)
1386 (LTDEMIAQY) [compound 1386] | – | – | CD8 | Yes (more dominant epitopes are defined by being recognized by 3 or more donors/different studies)
1389 (MIAQYTSAL) [compound 1389] | – | – | CD8 | Yes (more dominant epitopes are defined by being recognized by 3 or more donors/different studies)
1392 (LQIPFAMQMAY) [compound 1392] | – | – | CD8 | Yes (more dominant epitopes are defined by being recognized by 3 or more donors/different studies)
1396 (TQNVLYENQK) [compound 1396] | – | – | CD8 | Yes (more dominant epitopes are defined by being recognized by 3 or more donors/different studies)
1398 (NQKLIANQF) [compound 1398] | – | – | CD8 | Yes (more dominant epitopes are defined by being recognized by 3 or more donors/different studies)
1401 (AQALNTLVKQL) [compound 1401] | – | – | CD8 | Yes (more dominant epitopes are defined by being recognized by 3 or more donors/different studies)
1405 (VLNDILSRL) [compound 1405] | – | – | CD8 | Yes (more dominant epitopes are defined by being recognized by 3 or more donors/different studies)
1421 (YHLMSFPQSA) [compound 1421] | – | – | CD8 | Yes (more dominant epitopes are defined by being recognized by 3 or more donors/different studies)
1422 (HLMSFPQSA) [compound 1422] | – | – | CD8 | Yes (more dominant epitopes are defined by being recognized by 3 or more donors/different studies)
